Biological target: T1, GRdEcR/RXR (Drosophila melanogaster, UniProt P34021, E261P/P331L/Q260P/V259R)
T1 construct: ligation of a Not I-Bam HI fragment containing the DBD and LBD of a modified EcR cDNA, EcRnx; expressed in transfected cells; host or cells: CHO
T1 sequence (P34021 259-878 V259R/Q260P/E261P/P331L limits assumed): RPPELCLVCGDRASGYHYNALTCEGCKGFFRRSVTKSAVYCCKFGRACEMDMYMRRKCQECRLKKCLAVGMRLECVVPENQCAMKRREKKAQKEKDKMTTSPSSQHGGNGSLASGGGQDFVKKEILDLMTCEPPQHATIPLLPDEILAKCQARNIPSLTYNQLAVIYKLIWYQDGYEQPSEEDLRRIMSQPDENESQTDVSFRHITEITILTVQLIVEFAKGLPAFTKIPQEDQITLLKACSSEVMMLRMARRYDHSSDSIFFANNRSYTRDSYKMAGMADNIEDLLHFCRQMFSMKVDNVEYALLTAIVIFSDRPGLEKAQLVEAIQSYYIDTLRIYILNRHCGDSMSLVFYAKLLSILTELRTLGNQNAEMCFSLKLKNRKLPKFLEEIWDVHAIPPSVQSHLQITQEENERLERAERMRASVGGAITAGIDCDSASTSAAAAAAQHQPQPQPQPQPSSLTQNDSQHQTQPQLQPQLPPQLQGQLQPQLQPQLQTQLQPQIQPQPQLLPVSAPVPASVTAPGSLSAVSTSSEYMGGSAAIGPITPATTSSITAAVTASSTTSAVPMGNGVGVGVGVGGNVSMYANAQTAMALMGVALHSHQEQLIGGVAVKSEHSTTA
T1 sequence (P28700 1-467 partner): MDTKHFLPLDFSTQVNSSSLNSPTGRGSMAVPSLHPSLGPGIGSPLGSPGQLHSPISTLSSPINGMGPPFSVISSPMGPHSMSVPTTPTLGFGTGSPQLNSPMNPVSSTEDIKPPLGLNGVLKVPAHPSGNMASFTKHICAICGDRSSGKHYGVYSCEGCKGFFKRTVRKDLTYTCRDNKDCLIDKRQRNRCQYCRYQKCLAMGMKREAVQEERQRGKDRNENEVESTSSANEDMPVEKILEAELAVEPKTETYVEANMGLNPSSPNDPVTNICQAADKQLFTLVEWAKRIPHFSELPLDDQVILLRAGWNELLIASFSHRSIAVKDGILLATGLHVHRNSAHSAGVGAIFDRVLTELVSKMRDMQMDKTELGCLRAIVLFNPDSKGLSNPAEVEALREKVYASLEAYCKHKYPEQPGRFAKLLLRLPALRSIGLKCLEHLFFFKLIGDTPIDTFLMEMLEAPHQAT
Test: GRdEcR (GEcEc) chimera with RXR, (EcRE)5-ΔMTV reporter in CHO cells
Assay type: cell-based
Procedure: These experiments employed a mammalian cell culture system using Chinese hamster ovary cells (CHO) to evaluate the transcriptional function of Drosophila melanogaster EcR and USP using methods described previously (U.S. Patent Application Publication No: 2005/0049230; Henrich et al, 2003). Cells were seeded in 6-well polypropylene culture plates (Falcon) with 10^5 cells per well on the day prior to transfection. Transfection was subsequently performed using either calcium phosphate (Kitareewan et al., 1996, Mol. Biol. Cell, 7:1153-1196) or a GenePorter reagent (Gene Therapy Systems, Inc; San Diego, Calif.) following manufacturer's protocols. Each well received 1.25 μg of (EcRE)5-ΔMTV-CAT (five copies of the hsp27 EcRE inserted into an mouse mammary tumor virus (MTV) promoter upstream of the chloramphenicol acetyltransferase (CAT) gene) or (EcRE)5-ΔMTV-LUC (the same promoter attached to firefly luciferase), 1.25 μg of pCH111 (SV40 early promoter linked to the β-galactosidase gene) to normalize CAT activity, and 0.25 μg of each expression plasmid (EcR, FXR, RXR, USP) that was tested. The cells were incubated with plasmid DNA for seven hours and then washed with 1×PBS. Muristerone A (murA; Alexis Biochemicals) or 20-hydroxyecdysone (20E; Sigma) dissolved in ethanol to a concentration of 10 mM was diluted as necessary to the final assay concentration (FAC) in 2 ml of fresh incubation medium that was then applied to the cells. Similarly, JHIII (Sigma) was dissolved in dimethyl sulfoxide (DMSO) to a concentration of […] and diluted into the incubation medium to its final assay concentration (20, 40, 80, 160 μM). […] A corresponding volume of ethanol and DMSO were added to control cells for all experiments. For all experiments, the cells were allowed to incubate with the medium for 24 hours before collection and cell lysates were prepared by described methods (Kitareewan et al., 1996). Both β-galactosidase and CAT reporter activity were measured based on previously used methods (Kitareewan et al, 1996). Luciferase assays using luciferrin followed the specifications of the manufacturer.
Transcriptional activity, measured as ^14C-chloramphenicol counts (for measuring CAT activity) or relative luciferase activity (RLU) was quantified for each cell lysate. The counts were then normalized by adjusting for differences in β-galactosidase activity, since β-galactosidase expression is controlled by a constitutive promoter and provides an estimate of cell mass. Data were normalized as fold-induction based on differences in reporter gene activity between hormonally treated and control cells.
In an initial series of studies, a GRdEcR chimera that consists of the rat glucocorticoid receptor (GR) activation domain attached to the EcR DBD and LBD (FIG. 1) was cotransfected along with mRXRα into CHO cells. The response of transfected cells to murA was measured using a (EcRE)5-ΔMTV-CAT reporter plasmid that carries five tandem repeats of the hsp27 EcRE linked to the MTV (mouse mammary tumor virus) promoter and the chloramphenicol acetyltransferase gene (CAT).
The prominent candidate for this JH-responsive macromolecule in insects is the structurally-related ecdysone receptor (EcR). Like FXR, EcR heterodimerizes with RXR and binds to the hsp27 ecdysone-responsive DNA element (Forman et al., 1995), but distinctively activates transcription in response to muristerone A (MurA or MUR), a synthetic ecdysone (Yao et al., 1992). […] In the experiments shown in FIG. 15A, muristerone A (MUR) was added at the indicated doses in ethanol vehicle, and increasing amounts of JH III (12, 25, or 50 μM) were added (underlying triangles). Numbers over bars indicate the ratio of the GEcEc-dependent activity produced by 50 μM JH III in the presence of the indicated dose of MUR to the activity produced by MUR alone. Relative light units (RLU) from firefly luciferase in cell lysates are expressed relative to renilla luciferase (Promega).

CC(C)CC[C@@H](O)[C@](C)(O)[C@H]1CC[C@@]2(O)C3=CC(=O)[C@]4(O)C[C@@H](O)[C@@H](O)C[C@]4(C)[C@H]3[C@H](O)C[C@]12C [murA, muristerone A]
lowest murA dosage evoking a detectable response (GRdEcR + RXR, CAT reporter): 0.1 µM | MurA (inducibility) (GRdEcR/RXR, 0.1 μM murA): + ((+) designates a change in transcriptional level that exceeds 2.5-fold)

juvocimene
potentiation of MUR-inducible GEcEc-dependent activity (25 μM test compound, 0.2 μM muristerone A): between two and four times

COC(=O)/C=C(\C)CC/C=C(\C)CC[C@H]1OC1(C)C [JHIII, juvenile hormone III]
increase of MurA-induced GEcEc-dependent activity by JH III (80 μM JH III added to MurA): 3 times | response of GEcEc to JH III alone (80 μM JH III, no MurA): failed to respond | potentiation of murA response by JHIII (20, 40, 80, 160 μM JHIII at submaximal murA (0.1 μM and 1 μM)): potentiated the response of murA in a dose-dependent manner | MurA + JHIII (JHIII potentiation) (GRdEcR/RXR, 0.1 μM murA + 80 μM JHIII): + ((+) indicates observed potentiation that exceeds 2-fold above the levels observed with ecdysteroid alone) | effect of JHIII alone on transcription (no murA): did not show an effect

Reference: patent US8637237B2, “Methods, compositions, and systems for the identification of species-specific or developmental stage-specific insecticides” (The University of North Carolina at Greensboro, priority 2003, dated 2014)
